Measurements published in patent US20260034124A1, “NOVEL SALTS AND CRYSTALS” (INTRA-CELLULAR THERAPIES, INC., priority 2022, published 2026).
Like-named read-outs stand apart in the source and are kept apart here.

Experiments:
5-HT2C = molecular target: T1, 5-HT2C (Homo sapiens, UniProt P28335); conditions: cited from earlier work
T1 sequence (P28335 33-458): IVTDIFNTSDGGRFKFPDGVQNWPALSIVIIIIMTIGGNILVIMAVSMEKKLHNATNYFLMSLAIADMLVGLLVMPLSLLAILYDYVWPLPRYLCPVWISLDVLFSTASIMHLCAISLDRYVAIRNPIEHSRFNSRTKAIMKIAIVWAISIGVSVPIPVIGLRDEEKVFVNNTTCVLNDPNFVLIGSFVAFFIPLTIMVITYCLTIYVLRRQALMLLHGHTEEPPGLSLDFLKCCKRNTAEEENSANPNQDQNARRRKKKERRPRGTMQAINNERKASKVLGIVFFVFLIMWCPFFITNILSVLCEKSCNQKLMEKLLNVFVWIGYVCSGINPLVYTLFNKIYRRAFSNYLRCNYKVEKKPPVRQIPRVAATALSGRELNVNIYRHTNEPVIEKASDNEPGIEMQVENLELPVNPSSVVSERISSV

[1] = free base form, cited from earlier work
muscarinic = conditions: cited from earlier work
H1 histaminergic = H1 histaminergic (Homo sapiens, UniProt P35367); conditions: cited from earlier work
Chain of H1 histaminergic (P35367 whole entry): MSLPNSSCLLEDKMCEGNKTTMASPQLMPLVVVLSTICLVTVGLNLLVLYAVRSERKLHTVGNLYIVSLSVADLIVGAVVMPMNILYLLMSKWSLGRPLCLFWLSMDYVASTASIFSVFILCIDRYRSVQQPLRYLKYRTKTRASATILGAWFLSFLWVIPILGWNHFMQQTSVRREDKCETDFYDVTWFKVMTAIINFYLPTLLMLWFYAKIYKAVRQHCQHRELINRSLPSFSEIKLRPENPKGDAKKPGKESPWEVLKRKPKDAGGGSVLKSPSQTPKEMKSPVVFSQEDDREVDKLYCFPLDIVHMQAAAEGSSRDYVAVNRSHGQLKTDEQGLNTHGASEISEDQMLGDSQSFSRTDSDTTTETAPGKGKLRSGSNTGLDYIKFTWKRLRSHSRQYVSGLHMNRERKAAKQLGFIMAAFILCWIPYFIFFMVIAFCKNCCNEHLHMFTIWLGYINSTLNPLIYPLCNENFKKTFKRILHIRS

[2] = Aqueous solubility determination, saturated solution shaken in water, LC; assay type: physicochemical; conditions: slurried 24 hours, filtered
Protocol: The aqueous solubility of the successfully reproduced salts is determined by shaking a saturated solution in water. The solubility at pH 7.4 is determined by shaking a saturated solution in a phosphate buffered system. The samples are prepared by the addition of a known amount of water (100-200 μl) and subsequent slurrying with the solid for 24 hours. All samples are then filtered using syringe filters to remove undissolved solids, and then the filtrates are diluted with methanol/acetonitrile (1:1 v/v). LC analysis of the samples is performed, and a calibration line is used for the determination of the solubilities.

Structure (SMILES)	Aqueous Solubility [2]	further results
CN1CCN2c3c(cccc31)[C@@H]1CN(CCCC(=O)c3ccc(F)cc3)CC[C@@H]12 [Lumateperone, 4-((6bR,10aS)-3-methyl-2,3,6b,9,10,10a-hexahydro-1H-pyrido[3′,4′: 4,5]pyrrolo[1,2,3-de]quinoxalin-8(7H)-yl)-1-(4-fluorophenyl)-1-butanone]	–	binding to 5-HT2C receptors (5-HT2C): negligible binding; aqueous solubility of free base (in words) ([1]; listed as ITI-007): poor aqueous solubility; aqueous solubility of free base (in words) ([1]; listed as Lumateperone free base): very low water-solubility; binding to muscarinic receptors (muscarinic): negligible binding; binding to H1 histaminergic receptors (H1 histaminergic): negligible binding
CC(C)(C)c1ccc(S(=O)(=O)O)cc1.CN1CCN2c3c(cccc31)[C@@H]1CN(CCCC(=O)c3ccc(F)cc3)CC[C@@H]12 [4-t-butylbenzenesulfonate salt, lumateperone 4-tert-butylbenzenesulfonate salt]	770 µg/mL	–
CCCc1ccc(S(=O)(=O)O)cc1.CN1CCN2c3c(cccc31)[C@@H]1CN(CCCC(=O)c3ccc(F)cc3)CC[C@@H]12 [Example 4, lumateperone 4-propylbenzenesulfonate salt]	1620 µg/mL	–
CCCCCS(=O)(=O)O.CN1CCN2c3c(cccc31)C1CN(CCCC(=O)c3ccc(F)cc3)CCC12 (stereo not shown) [Example 8, lumateperone pentane-1-sulfonic salt]	18770 µg/mL	–
CCCCCCCCc1ccc(S(=O)(=O)O)cc1.CN1CCN2c3c(cccc31)[C@@H]1CN(CCCC(=O)c3ccc(F)cc3)CC[C@@H]12 [4-octylbenzenesulfonate salt, lumateperone 4-octylbenzenesulfonate salt]	6 µg/mL	–
CCCCCCCS(=O)(=O)O.CN1CCN2c3c(cccc31)C1CN(CCCC(=O)c3ccc(F)cc3)CCC12 (stereo not shown) [Example 9, lumateperone heptane-1-sulfonic salt]	4300 µg/mL	–
